In PubChem BioAssay (NCI):
Where “and” joins values, the source holds several entries; their conditions need not be identical. Identical values can stand only once.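 Compound exposure: 48 hours, 5 concentrations, 96-well plates. GI50 = concentration required for 50% inhibition of growth. Definition used: TGI = concentration required for complete inhibition of growth.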

Legend:
Test in all cases: NCI-60 cell line screen, 48 h
[1] = test system: A549 NSCLC
[2] = test system: COLO 205 colon
[3] = test system: EKVX NSCLC
[4] = test system: HCC-2998 colon
[5] = test system: HCT-15 colon
[6] = test system: IGROV1 ovarian
[7] = test system: KM12 colon
[8] = test system: LOX IMVI melanoma
[9] = test system: M14 melanoma
[10] = test system: MCF7 breast
[11] = test system: NCI-H226 lung
[12] = test system: OVCAR-3 ovarian
[13] = test system: SK-OV-3 ovarian
[14] = test system: SW-620 colon
[15] = test system: TK-10 renal
[16] = test system: UO-31 renal
[17] = test system: NCI-H460 lung
[18] = test system: SF-539 CNS

Row | SMILES | TGI [1] [µM] | TGI [2] [µM] | TGI [3] [µM] | TGI [4] [µM] | TGI [5] [µM] | TGI [6] [µM] | TGI [7] [µM] | TGI [8] [µM] | TGI [9] [µM] | TGI [10] [µM] | TGI [11] [µM] | TGI [12] [µM] | TGI [13] [µM] | TGI [14] [µM] | TGI [15] [µM] | TGI [16] [µM] | TGI [17] [µM] | TGI [18] [µM] | GI50 [3] | GI50 [18]
1 | c1ccc(-c2cc(-c3ccncc3)cc(-c3ccncc3)n2)cc1 | > 100 | > 100 | > 100 | > 100 | > 100 | > 100 | > 100 | > 100 | > 100 | > 100 | > 100 | > 100 | > 100 | > 100 | > 100 | > 100 |  |  |  | 
2 | COc1ccccc1N1C(=O)CSC1c1cc(OC)c(OC)c(OC)c1 (stereo not given) | > 100 | > 100 | > 100 | > 100 | > 100 | > 100 | > 100 | > 100 | > 100 | > 100 | > 100 | > 100 | > 100 | > 100 | > 100 | > 100 | > 100 | > 100 |  | 
3 | Cc1cccc(N=C/C=C(\Cl)c2ccc3ccccc3c2)c1 | > 100 | 45.8 | > 100 |  | 28.2 | > 60.3 | 41 | 9.27 | 38 | > 95.9 | > 69.3 | 32.3 | 53.5 | > 66.5 | 50.8 | 34.4 | > 80.9 | 40.7 |  | 
4 | CCCNCC(O)CNc1ccc(NCC(O)CNCCC)c2c1C(=O)c1ccccc1C2=O (stereo not given) | 4.64 | 7.97 | 20.1 | 3.21 | 75 | 7.87 | 17.3 | 3.62 | 11 | 7.5 | 6.24 | 13.7 | 7.78 | 7.21 | 22.2 | 31.8 | 8.48 | 5.11 |  | 
5 | COC(=O)CC(CNC(=O)OCc1ccccc1)OCc1ccc(OC)cc1 (stereo not given) | > 100 | > 100 | > 100 | > 100 | > 100 | > 100 | > 100 | > 100 | > 100 | > 100 | > 100 | > 100 | > 100 | > 100 | > 100 | > 100 | > 100 | > 100 |  | 
6 | CN1c2ccccc2C(=O)NC12CCNCC2 | > 100 | > 100 | > 100 | > 100 |  | > 100 | > 100 | > 100 | > 100 | > 100 | > 100 |  | > 100 | > 100 | > 100 | > 100 | > 100 | > 100 |  | 
7 | C/C(=C\CNc1ncnc2c1ncn2CCC(=O)OC(C)(C)C)CO | > 100 | > 100 | > 100 | > 100 |  | > 100 | > 100 | > 100 | > 100 | > 100 | > 100 | > 100 | > 100 | > 100 | > 100 | > 100 | > 100 | > 100 |  | 
8 | O=C1CCSc2nc(-c3ccc4c(c3)OCO4)nn21 | > 10 | > 10 | > 10 | > 10 | > 10 | > 10 | > 10 | > 10 | > 10 | > 10 | > 10 | > 10 | > 10 | > 10 | > 10 |  | > 10 | > 10 |  | 
9 | Nc1nc(N)c2ncn(-c3ccccc3)c2n1 | > 100 | > 100 | > 100 | > 100 | > 100 | > 100 | > 100 | > 100 | > 100 | > 100 | > 100 | > 100 | > 100 | > 100 | > 100 | > 100 |  | > 100 | 43.3 µM and 89.6 µM | > 100 µM and 49.2 µM
10 | Fc1cccc(C2SCc3nc4cc5ccccc5cc4n32)c1 (stereo not given) | > 100 | > 100 | > 100 | > 100 | > 100 | > 100 | > 100 | > 100 | > 100 | > 100 | > 100 | > 100 | > 100 | > 100 | > 100 | > 100 |  | > 100 |  | 
11 | C/C1=C/C[C@@H](/C(C)=C/c2csc(C)n2)OC(=O)C[C@H](O)C(C)(C)C(=O)[C@H](C)[C@@H](O)[C@@H](C)CCC1 | 0.181 |  | 0.215 | 0.125 | 0.237 | 0.215 | 0.196 | 0.143 | 0.23 | 0.231 | 0.214 | 0.173 | 0.214 | 0.24 | 0.4 | 0.181 | 0.23 | < 0.0001 |  | 
12 | CN1CC=C(c2cccn2C)CC1 | > 100 | > 100 | > 100 | > 100 | > 100 | > 100 | > 100 | > 100 | > 100 | > 100 | > 100 | > 100 | > 100 | > 100 | > 100 | > 100 |  |  |  | 
13 | CCCCCCCc1cscc1-c1cscc1Br | > 100 | 35.6 | > 100 | 75.6 | > 100 | > 100 | 80.7 | 36.4 | > 100 | > 100 | > 100 |  | > 100 | > 100 | > 100 | > 100 | > 100 | > 100 |  | 
14 | CC(C)CC(NC=O)C(=O)NC(Cc1ccccc1)NC(=O)CNC(=O)C(C)NC(=O)C(N)Cc1ccc(O)cc1 (stereo not given) | > 100 | > 100 | > 100 |  | > 100 | > 100 | > 100 | > 100 | > 100 | > 100 | > 100 | > 100 | > 100 | > 100 | > 100 | > 100 | > 100 | > 100 |  | 
15 | Cc1c2ccccc2c(C2C3C(=O)N(c4cccc5ccccc45)C(=O)C3ON2Cc2ccc(CC(N)=O)cc2)c2ccccc12 (stereo not given) | > 50 | 14.6 | 48.9 |  | > 50 | > 50 | > 50 | > 50 | > 50 | > 50 | 46.5 | > 50 | > 50 | > 50 | > 50 | > 50 | 48.6 | > 50 |  | 
16 | C=CC(OC(=O)C(C)C)c1ccc(OC(=O)C(C)C)cc1 (stereo not given) | 36.9 | 27.6 | 39.3 | 26.7 | 20.2 | 32.7 | 5.16 | 16.6 | 21.4 | 12.2 | 39 | 31.1 | 34 | 20.7 |  | 30.9 | 30.9 | 30.7 |  | 
17 | COc1cc2cc3c4cc(OC)c(OC)cc4cc[n+]3c(C)c2cc1OC | > 100 | > 100 | > 100 | > 100 | > 100 | > 100 | > 100 | > 100 |  | > 100 | > 100 | > 100 | > 100 | > 100 | > 100 | > 100 | > 100 | > 100 |  | 
18 | c1ccc2cc(CNCCCCNCCCNCc3ccc4ccccc4c3)ccc2c1 | 4.25 |  | 3.05 | 0.944 | 1.58 | 1.69 | 0.97 | 0.358 | 3.69 | 3.06 | 2.78 | 3.52 | 3.48 | 0.915 | 3.39 | 2.83 | 0.338 | 3.47 |  | 
19 | CC(=O)OCC1OC(OC(C)=O)C(Nc2ncc(-c3ccc(C)cc3)s2)C(OC(C)=O)C1OC(C)=O (stereo not given) | 47.9 | 38 | 27.6 | 57.7 | 60 | 36.4 |  | 32 | 33.4 | 52.1 | 50.4 | 35.1 | > 100 | 45.4 | 32.9 | 27.9 | 40.7 | 37.7 |  | 
20 | O=c1oc2ccc3ccccc3c2cc1-c1cn2c(n1)sc1ccccc12 | > 100 | > 100 | > 100 | > 100 | > 100 | > 100 | > 100 | > 100 | > 100 | > 100 | > 100 | > 100 | > 100 | > 100 | > 100 | > 100 | > 100 |  |  | 
21 | O=c1nc2c(c(-c3ccc(F)cc3)[nH]1)COC/C2=C\c1ccc(F)cc1 |  | > 100 | > 100 | > 100 | > 100 | > 100 | > 100 | > 100 | > 100 | > 100 | > 100 | > 100 | > 100 | > 100 | > 100 | > 100 | > 100 | > 100 |  | 
22 | CCOC(=O)C1=CNC(C(=O)OCC)C1c1cccn1-c1ccccc1 (stereo not given) | > 100 | 68.2 | > 100 | > 100 | > 100 | > 100 | 98.7 | 31 | > 100 | > 100 | 54.2 | > 100 |  | > 100 | > 100 | > 100 | > 100 | 47.1 |  | 
23 | CC(C)COP(C)(=O)C(N)(C(F)(F)F)C(F)(F)F (stereo not given) | > 100 | > 100 | > 100 | > 100 | > 100 | > 100 | > 100 | > 100 | > 100 | > 100 | > 100 | > 100 | > 100 | > 100 | > 100 | > 100 |  | > 100 |  | 
24 | Cc1ccc(S(=O)(=O)ON2C(=O)c3c(N)c(C#N)c(-c4ccccc4)c(-c4ccccc4)c3C2=O)cc1 | 43 | 33.1 | 29.1 | 89.1 | 37.6 | 30.6 | > 100 | 31.1 | 29.5 | 37.4 | 38.7 | 27.2 | > 100 | 30.8 | 36.8 |  | > 100 | 58.2 |  | 
25 | Cc1cc(C)c(S(=O)(=O)N(CCCN)OCCON(CCCN)S(=O)(=O)c2c(C)cc(C)cc2C)c(C)c1 | > 100 | > 100 | 20.6 | 4.24 | 70.5 | 4.67 | 4.49 | > 100 | > 100 | > 100 | 18.1 | 3.93 | 24.8 | > 100 | 42.8 | 58.7 | 17 |  |  | 
26 | S=C(Nc1ccc2c(c1)oc1ccccc12)c1cccs1 | > 100 | > 100 | > 100 | > 100 | > 100 | > 100 |  | > 100 | > 100 | > 100 | > 100 | > 100 | > 100 | > 100 | > 100 | > 100 |  | > 100 |  | 
27 | COc1ccc(NS(=O)c2c(C)cc(C)cc2C)cc1 (stereo not given) | > 100 | > 100 | > 100 | > 100 | > 100 | > 100 | 98.8 | > 100 | > 100 | > 100 | > 100 | > 100 |  | > 100 | > 100 | 61.1 | > 100 | 53.3 |  | 
